Measured values from patent publication US20240358693A1, “METHODS OF TREATING PAIN” (Aisa Pharma, Inc., priority 2023, published 2024).

Test system: participants with SSc-RP
Assay: Frequency of weekly RP attacks (all attacks; primary efficacy endpoint)
Format: in vivo, human
Conditions: for Weekly RP Attacks (All Attacks) Change from Baseline, Mean / Weekly RP Attacks (All Attacks) Change from Baseline, Median / Weekly RP Attacks (All Attacks) Percent Change from Baseline, Mean / Weekly RP Attacks (All Attacks) Percent Change from Baseline, Median / Weekly RP Attacks (All Attacks), Mean / Weekly RP Attacks (All Attacks), Median: Excluding Outliers, by Baseline RCS, ITT Part A; for Weekly RP Attacks Change from Baseline, Max / Weekly RP Attacks Change from Baseline, Mean (SD) / Weekly RP Attacks Change from Baseline, Median / Weekly RP Attacks Change from Baseline, Min / Weekly RP Attacks Change from Baseline, Q1 / Weekly RP Attacks Change from Baseline, Q3 / Weekly RP Attacks Percent Change from Baseline, Max / Weekly RP Attacks Percent Change from Baseline, Mean (SD) / Weekly RP Attacks Percent Change from Baseline, Median / Weekly RP Attacks Percent Change from Baseline, Min / Weekly RP Attacks Percent Change from Baseline, Q1 / Weekly RP Attacks Percent Change from Baseline, Q3 / Weekly RP Attacks, Max / Weekly RP Attacks, Mean (SD) / Weekly RP Attacks, Median / Weekly RP Attacks, Min / Weekly RP Attacks, Q1 / Weekly RP Attacks, Q3: all attacks, excluding outliers, tadalafil 5 mg daily
Source text: Percent change from baseline evaluation for frequency of weekly RP attacks were or will be used as the primary efficacy variable. The sponsor-developed participant-informed diary will be used to record data. Frequency of weekly RP attacks is defined as the total number of RP attacks divided by the number of days with available diary data within the last 7 days of each dosing period then multiplied by 7. Total number of RP attacks during the last 7 days of screening period divided by the number of days with available data then multiplied by 7 will be used as baseline for the analysis of all periods. The variable will be calculated as follows:
Percentage change={(weekly RP attacks for the last 7 days of each dosing period−Baseline weekly RP attacks)/Baseline weekly RP attacks}*100%.
Absolute change=weekly RP attacks for the last 7 days of each dosing period−Baseline weekly RP attacks
Percent change from baseline evaluation for frequency of weekly RP attacks was and will be the primary efficacy endpoint. Frequency of weekly RP attacks is defined as the total number of RP attacks divided by the number of days with available diary data within the last 7 days of each dosing period then multiplied by 7. Total number of RP attacks during the last 7 days of screening period divided by the number of days with available data then multiplied by 7 will be used as baseline for the analysis of all periods.
Percent change from baseline evaluation for frequency of weekly RP attacks were the primary efficacy endpoint. Data collected in the last 7 days of each dosing period were used for this analysis. Screening assessments were used as baseline for the analysis of all periods. No multiple comparison adjustment were used to control alpha for the multiple comparisons. Mixed effects model were used for analysis of the primary endpoint according to the crossover design. Other efficacy endpoints of continuous variables were analyzed using similar methodology. For nominal data, chi-square tests were applied. Generalized Estimating Equations method were used, as appropriate, for adjusting for potential confounding factors. In addition, the final analysis assessed whether in this study of severe Raynaud's disease participants, the minimally important difference, previously concluded of 14-15 points on the 100 point RCS scale had been achieved in the cilnidipine dose group. It also recorded the percentage of participants achieving a PASS (34 point difference from baseline on a 0-100 VAS) in each treatment group.

[1] = Cilnidipine 10 mg, n=1, first subgroup
[2] = Cilnidipine 20 mg (n=3), subgroup n = 2
[3] = Cilnidipine 20 mg, n=2, first subgroup
[4] = Pooled Cilnidipine 10 mg and Cilnidipine 10 mg + Tadalafil 5 mg, n=1, second subgroup
[5] = Pooled Cilnidipine 10 mg and Cilnidipine 10 mg + Tadalafil 5 mg, n=2, first subgroup
[6] = Pooled Cilnidipine 20 mg and Cilnidipine 20 mg + Tadalafil 5 mg, n=1, second subgroup
[7] = Pooled Cilnidipine 20 mg and Cilnidipine 20 mg + Tadalafil 5 mg, n=3, first subgroup
[8] = Pooled Cilnidipine (n = 7), subgroup n = 2
[9] = Pooled Cilnidipine, n=3, first subgroup
[10] = pooled cilnidipine 10 mg and 20 mg

COCCOC(=O)C1=C(C)NC(C)=C(C(=O)OC/C=C/c2ccccc2)C1c1cccc([N+](=O)[O-])c1 (stereo not drawn) [Cilnidipine, cilnidipine]
reduction in weekly frequency of typical Raynaud attacks (10 mg of cilnidipine (n=3 for both doses)): 28% | reduction in weekly frequency of typical Raynaud attacks (20 mg of cilnidipine (n=3 for both doses)): 46% | Weekly RP Attacks (All Attacks) Change from Baseline, Mean [1]: −9.00 | Weekly RP Attacks (All Attacks) Change from Baseline, Median [1]: −9.00 | Weekly RP Attacks (All Attacks) Percent Change from Baseline, Mean [1]: −28.13% | Weekly RP Attacks (All Attacks) Percent Change from Baseline, Median [1]: −28.13% | Weekly RP Attacks (All Attacks), Mean [1]: 23.00 | Weekly RP Attacks (All Attacks), Median [1]: 23.00 | Subgroup Baseline RCS, <3.5 baseline (Cilnidipine 20 mg (n=3), subgroup n = 1): <3.5 baseline −42% | Subgroup Baseline RCS, >3.5-7.5 baseline [2]: >3.5-7.5 baseline −43% | Subgroup attack frequency, <10 baseline [2]: <10 baseline −29% | Subgroup attack frequency, >10 baseline [2]: >10 baseline −50% | Weekly RP Attacks (All Attacks) Change from Baseline, Mean [3]: −6.67 | Weekly RP Attacks (All Attacks) Change from Baseline, Median [3]: −6.67 | Weekly RP Attacks (All Attacks) Percent Change from Baseline, Mean [3]: −45.71% | Weekly RP Attacks (All Attacks) Percent Change from Baseline, Median [3]: −45.71% | Weekly RP Attacks (All Attacks), Mean [3]: 8.00 | Weekly RP Attacks (All Attacks), Median [3]: 8.00 | Mean % reduction of weekly attacks from baseline (Cilnidipine (20 mg) (n = 3)): 43% | Mean weekly attacks at baseline (Cilnidipine (20 mg) (n = 3)): 12.7 | Weekly attack frequency (Cilnidipine (20 mg) (n = 3)): −43% | Weekly attack frequency, If baseline RCS <3.5 (Cilnidipine (20 mg) (n = 3)): −42% | Weekly RP Attacks (All Attacks) Change from Baseline, Mean [4]: −5.00 | Weekly RP Attacks (All Attacks) Change from Baseline, Median [4]: −5.00 | Weekly RP Attacks (All Attacks) Percent Change from Baseline, Mean [4]: −45.45% | Weekly RP Attacks (All Attacks) Percent Change from Baseline, Median [4]: −45.45% | Weekly RP Attacks (All Attacks), Mean [4]: 6.00 | Weekly RP Attacks (All Attacks), Median [4]: 6.00 | Weekly RP Attacks (All Attacks) Change from Baseline, Mean [5]: −6.50 | Weekly RP Attacks (All Attacks) Change from Baseline, Median [5]: −6.50 | Weekly RP Attacks (All Attacks) Percent Change from Baseline, Mean [5]: −36.28% | Weekly RP Attacks (All Attacks) Percent Change from Baseline, Median [5]: −36.28% | Weekly RP Attacks (All Attacks), Mean [5]: 14.00 | Weekly RP Attacks (All Attacks), Median [5]: 14.00 | Weekly RP Attacks (All Attacks) Change from Baseline, Mean [6]: −1.83 | Weekly RP Attacks (All Attacks) Change from Baseline, Median [6]: −1.83 | Weekly RP Attacks (All Attacks) Percent Change from Baseline, Mean [6]: −14.29% | Weekly RP Attacks (All Attacks) Percent Change from Baseline, Median [6]: −14.29% | Weekly RP Attacks (All Attacks), Mean [6]: 11.00 | Weekly RP Attacks (All Attacks), Median [6]: 11.00 | Weekly RP Attacks (All Attacks) Change from Baseline, Mean [7]: −5.78 | Weekly RP Attacks (All Attacks) Change from Baseline, Median [7]: −4.33 | Weekly RP Attacks (All Attacks) Percent Change from Baseline, Mean [7]: −37.49% | Weekly RP Attacks (All Attacks) Percent Change from Baseline, Median [7]: −45.00% | Weekly RP Attacks (All Attacks), Mean [7]: 10.33 | Weekly RP Attacks (All Attacks), Median [7]: 11.00 | Weekly attack frequency (Pooled Cilnidipine (n = 7)): −41% | Weekly attack frequency, If baseline RCS <3.5 (Pooled Cilnidipine (n = 7)): −27% | Subgroup Baseline RCS, 3.5-7.5 baseline (Pooled Cilnidipine (n = 7), subgroup n = 1): 3.5-7.5 baseline −86% | Subgroup attack frequency, <10 baseline [8]: <10 baseline −55% | Subgroup attack frequency, >10 baseline [8]: >10 baseline −28% | Subgroup Baseline RCS, <3.5 baseline (Pooled Cilnidipine (n = 7), subgroup n = 3): <3.5 baseline −27% | Weekly RP Attacks (All Attacks) Change from Baseline, Mean [9]: −7.44 | Weekly RP Attacks (All Attacks) Change from Baseline, Median [9]: −9.00 | Weekly RP Attacks (All Attacks) Percent Change from Baseline, Mean [9]: −39.85% | Weekly RP Attacks (All Attacks) Percent Change from Baseline, Median [9]: −45.00% | Weekly RP Attacks (All Attacks), Mean [9]: 13.00 | Weekly RP Attacks (All Attacks), Median [9]: 11.00 | Weekly RP Attacks Change from Baseline, Max (cilnidipine 10 mg): −9.0, −9.0 | Weekly RP Attacks Change from Baseline, Mean (SD) (cilnidipine 10 mg): −9.00 | Weekly RP Attacks Change from Baseline, Median (cilnidipine 10 mg): −9.00 | Weekly RP Attacks Change from Baseline, Min (cilnidipine 10 mg): −9.0, −9.0 | Weekly RP Attacks Change from Baseline, Q1 (cilnidipine 10 mg): −9.00, −9.00 | Weekly RP Attacks Change from Baseline, Q3 (cilnidipine 10 mg): −9.00, −9.00 | Weekly RP Attacks Percent Change from Baseline, Max (cilnidipine 10 mg): −28.1, −28.1% | Weekly RP Attacks Percent Change from Baseline, Mean (SD) (cilnidipine 10 mg): −28.13% | Weekly RP Attacks Percent Change from Baseline, Median (cilnidipine 10 mg): −28.13% | Weekly RP Attacks Percent Change from Baseline, Min (cilnidipine 10 mg): −28.1, −28.1% | Weekly RP Attacks Percent Change from Baseline, Q1 (cilnidipine 10 mg): −28.13, −28.13% | Weekly RP Attacks Percent Change from Baseline, Q3 (cilnidipine 10 mg): −28.13, −28.13% | Weekly RP Attacks, Max (cilnidipine 10 mg): 23.0, 23.0 | Weekly RP Attacks, Mean (SD) (cilnidipine 10 mg): 23.00 | Weekly RP Attacks, Median (cilnidipine 10 mg): 23.00 | Weekly RP Attacks, Min (cilnidipine 10 mg): 23.0, 23.0 | Weekly RP Attacks, Q1 (cilnidipine 10 mg): 23.00, 23.00 | Weekly RP Attacks, Q3 (cilnidipine 10 mg): 23.00, 23.00 | Weekly RP Attacks Change from Baseline, Max (cilnidipine 20 mg): −4.3 | Weekly RP Attacks Change from Baseline, Mean (SD) (cilnidipine 20 mg): −6.67 (3.300) | Weekly RP Attacks Change from Baseline, Median (cilnidipine 20 mg): −6.67 | Weekly RP Attacks Change from Baseline, Min (cilnidipine 20 mg): −9.0 | Weekly RP Attacks Change from Baseline, Q1 (cilnidipine 20 mg): −9.00 | Weekly RP Attacks Change from Baseline, Q3 (cilnidipine 20 mg): −4.33 | Weekly RP Attacks Percent Change from Baseline, Max (cilnidipine 20 mg): −45.0% | Weekly RP Attacks Percent Change from Baseline, Mean (SD) (cilnidipine 20 mg): −45.71 (1.010) Percent | Weekly RP Attacks Percent Change from Baseline, Median (cilnidipine 20 mg): −45.71% | Weekly RP Attacks Percent Change from Baseline, Min (cilnidipine 20 mg): −46.4% | Weekly RP Attacks Percent Change from Baseline, Q1 (cilnidipine 20 mg): −46.43% | Weekly RP Attacks Percent Change from Baseline, Q3 (cilnidipine 20 mg): −45.00% | Weekly RP Attacks, Max (cilnidipine 20 mg): 11.0 | Weekly RP Attacks, Mean (SD) (cilnidipine 20 mg): 8.00 (4.243) | Weekly RP Attacks, Median (cilnidipine 20 mg): 8.00 | Weekly RP Attacks, Min (cilnidipine 20 mg): 5.0 | Weekly RP Attacks, Q1 (cilnidipine 20 mg): 5.00 | Weekly RP Attacks, Q3 (cilnidipine 20 mg): 11.00 | Weekly RP Attacks Change from Baseline, Max [10]: −4.3 | Weekly RP Attacks Change from Baseline, Mean (SD) [10]: −7.44 (2.694) | Weekly RP Attacks Change from Baseline, Median [10]: −9.00 | Weekly RP Attacks Change from Baseline, Min [10]: −9.0 | Weekly RP Attacks Change from Baseline, Q1 [10]: −9.00 | Weekly RP Attacks Change from Baseline, Q3 [10]: −4.33 | Weekly RP Attacks Percent Change from Baseline, Max [10]: −28.1% | Weekly RP Attacks Percent Change from Baseline, Mean (SD) [10]: −39.85 (10.180) Percent | Weekly RP Attacks Percent Change from Baseline, Median [10]: −45.00% | Weekly RP Attacks Percent Change from Baseline, Min [10]: −46.4% | Weekly RP Attacks Percent Change from Baseline, Q1 [10]: −46.43% | Weekly RP Attacks Percent Change from Baseline, Q3 [10]: −28.13% | Weekly RP Attacks, Max [10]: 23.0 | Weekly RP Attacks, Mean (SD) [10]: 13.00 (9.165) | Weekly RP Attacks, Median [10]: 11.00 | Weekly RP Attacks, Min [10]: 5.0 | Weekly RP Attacks, Q1 [10]: 5.00
